Experimental data from ChEMBL document CHEMBL5131453, “Discovery and structure-based design of a new series of potent and selective PPARδ agonists utilizing a virtual screening method” (Bioorg Med Chem Lett, 2022).
In brackets after ≈: the same amount, converted by molar mass.

Legend:
[1] = biological target: T1, Peroxisome proliferator-activated receptor alpha (Homo sapiens) (UniProt Q07869); experiment: Transactivation of Gal4-fused human PPARalpha expressed in CHO cells co expressing pG5-Luc reporter at 1 uM; assay type: cell-based; settings: filed as agonist
T1 sequence (whole entry): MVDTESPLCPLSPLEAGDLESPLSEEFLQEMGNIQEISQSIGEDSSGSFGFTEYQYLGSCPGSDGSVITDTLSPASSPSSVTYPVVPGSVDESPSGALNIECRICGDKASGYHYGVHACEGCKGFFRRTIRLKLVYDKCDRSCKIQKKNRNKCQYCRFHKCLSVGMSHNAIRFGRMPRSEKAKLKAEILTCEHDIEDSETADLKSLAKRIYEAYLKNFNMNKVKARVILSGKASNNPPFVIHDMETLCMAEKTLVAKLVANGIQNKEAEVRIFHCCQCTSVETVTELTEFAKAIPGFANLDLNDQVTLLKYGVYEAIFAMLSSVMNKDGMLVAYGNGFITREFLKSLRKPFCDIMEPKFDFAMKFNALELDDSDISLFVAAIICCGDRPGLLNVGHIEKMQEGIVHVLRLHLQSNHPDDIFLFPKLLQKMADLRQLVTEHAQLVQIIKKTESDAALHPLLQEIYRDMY

[2] = biological target: T2, Peroxisome proliferator-activated receptor delta (Mus musculus) (UniProt P35396); experiment: Transactivation of Gal4-fused mouse PPARdelta expressed in CHO cells co expressing pG5-Luc reporter at 1 uM; assay type: cell-based; settings: filed as agonist
T2 sequence (whole entry): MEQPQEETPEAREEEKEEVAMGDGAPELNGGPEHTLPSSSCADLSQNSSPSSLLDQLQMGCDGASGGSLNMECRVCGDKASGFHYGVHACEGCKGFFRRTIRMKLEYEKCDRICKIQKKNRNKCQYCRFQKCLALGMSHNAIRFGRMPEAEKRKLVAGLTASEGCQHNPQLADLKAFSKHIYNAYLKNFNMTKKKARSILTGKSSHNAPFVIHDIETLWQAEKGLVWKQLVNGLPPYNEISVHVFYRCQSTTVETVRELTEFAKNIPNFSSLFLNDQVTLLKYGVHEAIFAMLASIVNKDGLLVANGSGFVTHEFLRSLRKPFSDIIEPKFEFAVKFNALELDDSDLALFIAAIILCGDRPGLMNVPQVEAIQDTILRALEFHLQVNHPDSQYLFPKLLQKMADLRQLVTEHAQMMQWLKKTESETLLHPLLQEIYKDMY

[3] = system: Mus musculus; experiment: Anti-obesity activity in […] mouse assessed as HDL cholesterol level at 30 mg/kg, po for 8 days (reference value: 103.5 +/- 3.2 %); assay type: functional; settings: time 8 day
[4] = system: Mus musculus; experiment: Anti-obesity activity in […] mouse assessed as TG level at 30 mg/kg, po for 8 days (reference value: 162.8 +/- 21.4 mg/dL); assay type: functional; settings: time 8 day
[5] = system: Mus musculus; experiment: Anti-diabetic activity in […] mouse assessed as glucose level at 30 mg/kg, po for 8 days (reference value: 737 +/- 52 mg/dL); assay type: functional; settings: time 8 day
[6] = biological target: T3, Peroxisome proliferator-activated receptor alpha (Homo sapiens, UniProt Q07869); experiment: Transactivation of Gal4-fused human PPARalpha expressed in CHO cells co expressing pG5-Luc reporter; assay type: cell-based
T3 sequence (Q07869 whole entry): T1 sequence (whole entry)

[7] = biological target: T4, Peroxisome proliferator-activated receptor gamma (Homo sapiens, UniProt P37231); assay type: cell-based, CHO
T4 sequence (P37231 whole entry): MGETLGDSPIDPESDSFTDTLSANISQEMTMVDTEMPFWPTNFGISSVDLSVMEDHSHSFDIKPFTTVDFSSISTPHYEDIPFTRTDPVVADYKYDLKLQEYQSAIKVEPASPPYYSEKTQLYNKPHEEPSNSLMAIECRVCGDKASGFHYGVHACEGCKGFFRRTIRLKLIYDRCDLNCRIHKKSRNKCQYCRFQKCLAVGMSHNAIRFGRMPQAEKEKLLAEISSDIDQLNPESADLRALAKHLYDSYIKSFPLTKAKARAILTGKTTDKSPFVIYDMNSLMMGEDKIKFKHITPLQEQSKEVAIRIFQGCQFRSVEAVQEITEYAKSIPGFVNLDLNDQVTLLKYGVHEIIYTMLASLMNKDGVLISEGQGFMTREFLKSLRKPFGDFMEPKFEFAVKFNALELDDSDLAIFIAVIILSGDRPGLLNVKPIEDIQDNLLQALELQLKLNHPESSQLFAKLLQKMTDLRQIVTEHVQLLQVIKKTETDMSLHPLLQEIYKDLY

[8] = biological target: T5, Peroxisome proliferator-activated receptor delta (Homo sapiens, UniProt Q03181); experiment: Transactivation of Gal4-fused human PPARdelta expressed in CHO cells co expressing pG5-Luc reporter; assay type: cell-based
T5 sequence (Q03181 whole entry): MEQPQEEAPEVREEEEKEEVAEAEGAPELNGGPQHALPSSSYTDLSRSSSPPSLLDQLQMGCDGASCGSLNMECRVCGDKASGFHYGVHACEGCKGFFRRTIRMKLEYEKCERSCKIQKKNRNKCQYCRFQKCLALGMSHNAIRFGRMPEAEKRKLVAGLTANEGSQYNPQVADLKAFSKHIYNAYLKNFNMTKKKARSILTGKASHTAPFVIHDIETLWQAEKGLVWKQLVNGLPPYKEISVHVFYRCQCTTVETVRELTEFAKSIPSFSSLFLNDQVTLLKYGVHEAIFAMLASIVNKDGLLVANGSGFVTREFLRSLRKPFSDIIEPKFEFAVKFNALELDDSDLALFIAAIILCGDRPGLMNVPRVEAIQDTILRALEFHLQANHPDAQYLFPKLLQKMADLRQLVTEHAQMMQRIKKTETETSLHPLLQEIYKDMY

[9] = biological target: T6, Peroxisome proliferator-activated receptor delta (Mus musculus, UniProt P35396); experiment: Transactivation of Gal4-fused mouse PPARdelta expressed in CHO cells co expressing pG5-Luc reporter; assay type: cell-based
T6 sequence (P35396 whole entry): T2 sequence (whole entry)

[10] = biological target: T1, Peroxisome proliferator-activated receptor alpha (Homo sapiens); experiment: Transactivation of Gal4-fused human PPARalpha expressed in CHO cells co expressing pG5-Luc reporter at 10 uM; assay type: cell-based; settings: filed as agonist
[11] = biological target: T7, Peroxisome proliferator-activated receptor gamma (Homo sapiens) (UniProt P37231); experiment: Transactivation of Gal4-fused human PPARgamma expressed in CHO cells co expressing pG5-Luc reporter at 10 uM; assay type: cell-based; settings: filed as agonist
T7 sequence (whole entry): T4 sequence (P37231 whole entry)

[12] = biological target: T8, Peroxisome proliferator-activated receptor delta (Homo sapiens) (UniProt Q03181); experiment: Transactivation of Gal4-fused human PPARdelta expressed in CHO cells co expressing pG5-Luc reporter at 10 uM; assay type: cell-based; settings: filed as agonist
T8 sequence (whole entry): T5 sequence (Q03181 whole entry)

[13] = biological target: T9, CYP1A2 (Homo sapiens, UniProt P05177); experiment: Inhibition of CYP1A2 (unknown origin) assessed as residual activity at 20 uM by enzyme assay relative to control; assay type: ADME; settings: read-out: Activity
T9 sequence (P05177 whole entry): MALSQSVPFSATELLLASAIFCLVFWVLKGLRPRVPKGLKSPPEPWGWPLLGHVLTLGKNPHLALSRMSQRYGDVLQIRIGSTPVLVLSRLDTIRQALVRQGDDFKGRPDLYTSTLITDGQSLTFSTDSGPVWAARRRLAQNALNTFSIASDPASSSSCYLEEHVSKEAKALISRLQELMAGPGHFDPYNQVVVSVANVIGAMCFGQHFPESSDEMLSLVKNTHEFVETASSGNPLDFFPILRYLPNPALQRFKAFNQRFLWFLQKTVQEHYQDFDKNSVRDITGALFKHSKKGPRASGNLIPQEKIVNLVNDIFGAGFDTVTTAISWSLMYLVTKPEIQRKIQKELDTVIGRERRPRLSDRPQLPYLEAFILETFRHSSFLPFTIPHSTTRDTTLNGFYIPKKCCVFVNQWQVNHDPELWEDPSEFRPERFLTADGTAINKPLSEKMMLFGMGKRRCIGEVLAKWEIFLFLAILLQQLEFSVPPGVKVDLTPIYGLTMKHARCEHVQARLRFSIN

[14] = Metabolic stability in rat liver microsomes assessed as parent compound remaining after 0.5 hrs relative to control; assay type: ADME, Microsome; settings: read-out: Stability
[15] = Metabolic stability in human liver microsomes assessed as parent compound remaining after 0.5 hrs relative to control; assay type: ADME, Microsome; settings: read-out: Stability
[16] = biological target: CYP2C9 (Homo sapiens, UniProt P11712); experiment: Inhibition of CYP2C9 (unknown origin) assessed as residual activity at 20 uM by enzyme assay relative to control; assay type: ADME; settings: read-out: Activity
[17] = biological target: CYP2D6 (Homo sapiens, UniProt P10635); experiment: Inhibition of CYP2D6 (unknown origin) assessed as residual activity at 20 uM by enzyme assay relative to control; assay type: ADME; settings: read-out: Activity
[18] = biological target: CYP3A4 (Homo sapiens, UniProt P08684); experiment: Inhibition of CYP3A4 (unknown origin) assessed as residual activity at 20 uM by enzyme assay relative to control; assay type: ADME; settings: read-out: Activity
[19] = Kinetic solubility of compound at pH 6.8 by HPLC analysis; assay type: physicochemical; settings: buffer, read-out: Kinetic_solubility
[20] = Total clearance in rat dosed as mixture; assay type: ADME, organism-based; settings: in vivo
[21] = Half life in rat dosed as mixture; assay type: ADME, organism-based; settings: in vivo
[22] = organism: Homo sapiens; experiment: Selectivity index, ratio of EC50 for human PPARalpha to EC50 for human PPARdelta
[23] = biological target: PPAR delta/gamma (Homo sapiens) (UniProt P37231+Q03181); experiment: Selectivity index, ratio of EC50 for human PPAgamma to EC50 for human PPARdelta; assay type: protein assay

CYP2D6, sequence (P10635 whole entry): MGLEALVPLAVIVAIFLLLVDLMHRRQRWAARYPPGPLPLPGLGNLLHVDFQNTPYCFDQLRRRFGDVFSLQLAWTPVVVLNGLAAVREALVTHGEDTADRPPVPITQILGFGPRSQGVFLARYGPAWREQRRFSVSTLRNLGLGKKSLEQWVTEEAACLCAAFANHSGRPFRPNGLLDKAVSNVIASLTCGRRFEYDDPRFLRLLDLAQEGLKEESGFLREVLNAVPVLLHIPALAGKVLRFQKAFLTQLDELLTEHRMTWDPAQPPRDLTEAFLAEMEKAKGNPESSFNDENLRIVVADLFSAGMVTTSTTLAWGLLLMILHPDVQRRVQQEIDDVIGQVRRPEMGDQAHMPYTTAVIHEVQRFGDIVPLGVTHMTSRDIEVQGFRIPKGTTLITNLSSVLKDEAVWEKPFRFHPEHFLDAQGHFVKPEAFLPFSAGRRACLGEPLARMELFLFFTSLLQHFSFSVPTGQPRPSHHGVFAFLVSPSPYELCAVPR
CYP2C9, sequence (P11712 whole entry): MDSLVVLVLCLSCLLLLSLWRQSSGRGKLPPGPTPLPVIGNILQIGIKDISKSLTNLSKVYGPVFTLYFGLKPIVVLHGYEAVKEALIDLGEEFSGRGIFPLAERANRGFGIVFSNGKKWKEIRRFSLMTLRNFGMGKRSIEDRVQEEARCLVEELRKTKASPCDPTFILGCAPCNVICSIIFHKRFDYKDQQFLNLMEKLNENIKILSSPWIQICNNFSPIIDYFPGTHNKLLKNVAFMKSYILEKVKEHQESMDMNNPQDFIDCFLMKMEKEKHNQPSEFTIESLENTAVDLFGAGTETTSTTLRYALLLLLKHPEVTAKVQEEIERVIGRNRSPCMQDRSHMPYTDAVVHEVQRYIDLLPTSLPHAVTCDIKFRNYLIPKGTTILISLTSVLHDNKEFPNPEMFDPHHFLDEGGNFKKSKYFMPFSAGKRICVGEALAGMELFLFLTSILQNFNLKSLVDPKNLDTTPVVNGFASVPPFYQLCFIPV
CYP3A4, sequence (P08684 whole entry): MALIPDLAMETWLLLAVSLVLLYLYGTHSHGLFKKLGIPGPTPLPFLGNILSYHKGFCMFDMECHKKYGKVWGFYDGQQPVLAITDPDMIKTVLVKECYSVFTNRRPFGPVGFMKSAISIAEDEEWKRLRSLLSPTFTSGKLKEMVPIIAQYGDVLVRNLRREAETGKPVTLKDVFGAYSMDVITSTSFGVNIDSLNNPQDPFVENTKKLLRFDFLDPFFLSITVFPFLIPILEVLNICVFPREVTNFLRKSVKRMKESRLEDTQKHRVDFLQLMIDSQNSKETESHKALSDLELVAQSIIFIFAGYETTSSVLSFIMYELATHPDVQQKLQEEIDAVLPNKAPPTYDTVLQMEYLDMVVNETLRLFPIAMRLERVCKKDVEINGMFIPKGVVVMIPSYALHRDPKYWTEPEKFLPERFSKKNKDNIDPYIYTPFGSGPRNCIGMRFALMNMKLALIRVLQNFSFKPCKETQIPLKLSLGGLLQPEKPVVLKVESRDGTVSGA

Row | Structure (SMILES) | fold change (FC) [1] | fold change (FC) [2] | EC50 [6] [nM] | EC50 [7] [nM] | EC50 [8] [nM] | EC50 [9] [nM] | other results
1 | CN(CCOc1ccc(CC2SC(=O)NC2=O)cc1)c1ccccn1 (stereo not drawn) | 1.2 |  |  |  |  |  | 
2 | Cc1cc(SCc2sc(-c3ccc(C(F)(F)F)cc3)nc2C)ccc1OCC(=O)O [GW501516] | 3.1 | 30.4 |  |  |  |  | Activity [3]: 132.9%; Activity [4]: 82.4 mg/dL; Activity [5]: 493 mg/dL
3 | Cc1cc(CC(=O)O)cc(OCCC2CCN(c3nc4ccc(Cl)cc4s3)CC2)c1 |  |  | 955 | 1070 | 92.9 | 151 | 
4 | O=C(O)CCC(=O)OCCC1CCN(c2nc3ccc(Cl)cc3s2)CC1 | 2.4 | 2 |  |  |  |  | fold change (FC) [10]: 8.6; fold change (FC) [11]: 1.5; fold change (FC) [12]: 11
5 | O=C(O)CCC(=O)OCCN1CCN(c2nc3ccc(Cl)cc3s2)CC1 | 1.5 |  |  |  |  |  | fold change (FC) [10]: 3; fold change (FC) [11]: 1.5; fold change (FC) [12]: 2.8
6 | Cc1ccc(CC(=O)O)cc1OCCC1CCN(c2nc3ccc(Cl)cc3s2)CC1 |  |  | 637 | 542 | 16.4 | 71.2 | activity at 20 µM [13]: 92%; remaining at 0.5 h [14]: 101%; remaining at 0.5 h [15]: 96%; activity at 20 µM [16]: 58%; activity at 20 µM [17]: 94%; activity at 20 µM [18]: > 99%; solubility kinetic [19]: 21.8 µM (≈ 9.7 µg/mL); clearance [20]: 14.3 mL/min/kg; half-life [21]: 1.8 h; Activity [3]: 118%; Activity [4]: 63.9 mg/dL; Activity [5]: 415 mg/dL; Ratio EC50 [22]: 38; Ratio EC50 [23]: 33
7 | CCc1ccc(CC(=O)O)cc1OCCC1CCN(c2nc3ccc(Cl)cc3s2)CC1 |  |  | 3600 | 680 | 120 | 330 | 

Further lines, with some results ahead:

Row | fold change (FC) [1] | fold change (FC) [2] | EC50 [6] [nM] | EC50 [7] [nM] | EC50 [8] [nM] | EC50 [9] [nM] | Structure (SMILES) | other results
8 | 2.5 | 7 |  |  |  |  | O=C(O)Cc1cccc(OCC2CCN(c3nc4ccc(Cl)cc4s3)CC2)c1 | 
9 |  |  |  | 980 | 110 | 830 | Cc1ccc(OCCC2CCN(c3nc4ccc(Cl)cc4s3)CC2)cc1CC(=O)O | 
10 | 7.5 | 1.4 |  |  |  |  | O=C(O)c1cccc(OCCC2CCN(c3nc4ccc(Cl)cc4s3)CC2)c1 | 
11 |  |  | 2220 |  | 263 | 1060 | O=C(O)Cc1cccc(OCCC2CCN(c3nc4ccc(Cl)cc4s3)CC2)c1 | 
12 | 1.5 | 2.2 |  |  |  |  | O=C(O)CCc1cccc(OCCC2CCN(c3nc4ccc(Cl)cc4s3)CC2)c1 | 
